One compound from US20260022134A1, “N-HETEROCYCLE-CONTAINING BORIC ACID COMPOUND AND PREPARATION METHOD AND APPLICATION THEREOF” (Hangzhou City University, priority 2022, published 2026) can be followed below.

Structures are written as SMILES.

Type in all cases: cell-based
Data set [1] deals with glioblastoma cells A172. Description: SRB colorimetric analysis, cell survival/proliferation. As for the experimental part: (§1) After passage to the logarithmic phase, the cells were dissociated by 0.25 trypsin-EDTA and blown into single cells, and with a final cell concentration adjusted to […], inoculated into a 96-well plate with each well 100 μl (edge wells were filled with sterile PBS), 5% CO2, and 37° C. incubation. After 24 h (until a single layer of cells were spread to 30% to 50% of the well bottom), a cell culture solution containing drugs of corresponding concentrations was added and incubated for 24, 48 and 72 h in a 5% CO2, 37° C. incubator. Each drug concentration was provided with three parallel wells. The cells were medicate-cultured for 24, 48 and 72 h and then fixed by trichloroacetic acid (TCA). Each well of the cells was fixed by a pre-cooled 15% TCA liquid 100 μl, and then the 96-well plate was moved to 4° C. and stood for 4 h. The fixing liquid was discarded and the 96 wells were washed five times with sterile triple-distilled water and spin-dried and air-dried in 37° C. drying oven. Each well was added with 100 μl 0.4% SRB solution, and kept free from light and stood for 30 min at room temperature. The SRB not combined with proteins was cleaned with 1% glacial acetic acid and air-dried in 37° C. drying oven. The combined SRB was dissolved by 100 μl 10 mM non-buffer Tris alkaline solution (pH 10.5), and oscillated and mixed uniformly and then measured for the OD value on an enzyme-linked immuno detector. By blank control zero setting, the OD value of each well was measured at the position of a wavelength of 570 nm. The obtained growth inhibition rate of the tumor cells was defined as an in vitro inhibition rate of the drug on the tumor cells. The inhibition rate is […].
(§2) Firstly, we evaluated the growth inhibition effect of (3-((5-chloro-4-(1H-pyrrolo[2,3-b]pyridin-3-yl)pyrimidin-2-yl)amino)phenyl)boric acid on the MG cells U251A172 and U87 of three different glioblastoma cell series. With different concentrations of (3-((5-chloro-4-(1H-pyrrolo[2,3-b]pyridin-3-yl)pyrimidin-2-yl)amino)phenyl)boric acid, the cells U251, A172 and U87 were treated for 24 h, 48 h and 72 h and then based on the SRB detection method, the survival rate of the cells treated by (3-((5-chloro-4-(1H-pyrrolo[2,3-b]pyridin-3-yl)pyrimidin-2-yl)amino)phenyl)boric acid was detected. […] The cytotoxic effect of the U87 was more obvious than those of U251 and A172.

Data set [2] deals with glioblastoma cells U251. The description is as above. The method, then:
as §1, §2

Data set [3] deals with glioblastoma cells U87. The data set is described as above. The method, then: as §1, §2
For data set [4], the system named is glioblastoma cells A172. Description: Cell colony-formation assay. Conditions: cells A172, 14 days, different concentrations. The method, then:
(§3) The cells of the logarithmic phase were taken and dissociated by 0.25% trypsin-EDTA and blown into single cells, and inoculated into the 6-well plate with a density of 2000 to 3000 pcs/well, and gently shaken to disperse the cells uniformly and then placed into 5% CO2, 37° C. incubator for incubation. After 24 h, the original culture medium was discarded and a fresh cell culture medium containing drugs of corresponding concentrations was then added, and the cells then were incubated in the incubator for about 14 days. During this period, the fresh culture medium containing the drugs of corresponding concentrations was replaced every two or three days. Frequent observation should be made to ensure that when a macroscopic colony appears in the culture plate, the culture was ended. The supernatant was discarded and cleaning was performed carefully twice with PBS. […] Finally, the number of the formed colonies was calculated.
(§4) In order to determine the effect of (3-((5-chloro-4-(1H-pyrrolo[2,3-b]pyridin-3-yl)pyrimidin-2-yl)amino)phenyl)boric acid on the cell colony formation ability of the glioblastoma, we treated the cells U251 and A172 with different concentrations of (3-((5-chloro-4-(1H-pyrrolo[2,3-b]pyridin-3-yl)pyrimidin-2-yl)amino)phenyl)boric acid and 14 days later, determined the cell colony formation ability by colony determination.

The subject of data set [5] is glioblastoma cells U251. Description: Cell colony-formation assay. Conditions: cells U251, 14 days, different concentrations. The method, then:
as §3, §4

Data set [6] relates to glioma cells U251. Kind of data set: Flow cytometry cell cycle analysis (PI staining). Particulars: cells U251, 24 h treatment; increased from 14.70%. As for the experimental part: (§5) The cells of the logarithmic phase were taken and dissociated by 0.25% trypsin-EDTA and blown into single cells, and inoculated into the 6-well plate with a density of 2000 to 3000 pcs/well, and gently shaken to disperse the cells uniformly and then placed into 5% CO2, 37° C. incubator for incubation. After 24 h, the original culture medium was discarded and a fresh cell culture medium containing drugs of corresponding concentrations was then added; after the cells were incubated for 24 h, the cells were dissociated by 0.25% trypsin-EDTA and cleaned twice with 1 mL of precooled PBS and then re-suspended with 250 μl PBS and slowly added dropwise into 750 μl of precooled 75% ethyl alcohol, and then fixed at the temperature of −20° C. overnight. […] Propidium iodide (PI) with a final concentration of […] was added for staining of 1 h free from light at room temperature, and then filtered by gauze and then transferred to a flow tube and detected and analyzed by a flow cytometer.
(§6) In order to determine the mechanism of the growth inhibition effect of (3-((5-chloro-4-(1H-pyrrolo[2,3-b]pyridin-3-yl)pyrimidin-2-yl)amino)phenyl)boric acid on the cells U251 and U87, after 24 h following the treatment with different concentrations of (3-((5-chloro-4-(1H-pyrrolo[2,3-b]pyridin-3-yl)pyrimidin-2-yl)amino)phenyl)boric acid, the cell cycle was analyzed and evaluated by flow cytometry.

The subject of data set [7] is glioma cells U87. Kind of data set: Flow cytometry cell cycle analysis (PI staining). Particulars: cells U87, 24 h treatment; increased from 11.99%. The method, then:
as §5, §6
(In general: A flow cytometer gives signals particle by particle.)

Data set [8] relates to p-Stat3, p-Akt, c-Myc, Cyclin B1, p-Erk1/2 in cells U251. Kind of data set: Western blot of cell protein expressions. Conditions: cells U251, after 24 h treatment. As for the experimental part: (§7) The cell supernatant was discarded and the cells were washed twice with PBS; based on cell confluence, a corresponding amount of Loading buffer was added, and stirred by a pipette tip while fully covered, and then collected to a centrifuge tube and centrifuged and then placed into a high-temperature metal bath of 100° C. for denaturation of 10 min, then cooled on ice and centrifuged and stored at the temperature of −20° C. for later use in the Western blot. The loading volume was adjusted by Western block pre-experiment to ensure the internal control proteins were uniform. • 2) BSA quantitative method
(§8) The cells treated by the trypsin dissociation and collection assay were centrifuged for 4 min at the rotation speed of 1500 rpm/min. The supernatant was discarded and the cells were re-suspended and washed with the pre-cooled PBS and then transferred to al. 5 mL Eppendorf tube and then centrifuged again and the supernatant was all discarded. Cell lysis was carried out on ice, and based on a precipitation amount, a proper amount of RIPA lysis solution was added and blown uniform by the pipette and then stood on ice. The cells were whirled or dispersed once every other 10 min, and 30 min later, the cells were put into a pre-cooled 4° C. centrifugal machine and centrifuged for 30 min at the rotation speed of 12000 rpm/min. The supernatant was sucked to a new Eppendorf tube to obtain a protein sample solution.
(§9) A standard protein BSA was selected for making a standard curve and the BSA was sequentially half-diluted by 10 factors. The protein sample was diluted with deionized water by 10 factors and 5 μL of diluted sample was sucked to a new Eppendorf tube and then 200 μL of BCA reagent was added to each tube (liquid A: liquid B=50:1) and placed in a 37° C. drying oven for incubation of 30 min After completion of the reaction, the liquid was whirled uniformly and 100 μL was sucked to a 96-well plate and measured for the OD value at the position of the wavelength 562 nm. Based on the standard curve, quantification was performed to sub-package the protein sample and then 5×Loading buffer was added for denaturation of 10 min at the temperature of 100° C., and cooled and centrifuged and then stored at the temperature of −20° C. for later use. • 3) Gel preparation: based on the size of target protein molecules, a desired gel was prepared and then solidified and then put into deionized water and stored in 4° C. refrigerator for later use. • 4) Electrophoresis: before electrophoresis, the protein sample was heated for 3 to 5 min at the temperature of 100° C. and then cooled and centrifuged and then loaded. A protein marker was added before the sample and then equal-volume or equal-quantity loading was performed in a sequence. After completion of loading, constant-voltage electrophoresis was performed with the voltage adjusted to 70V. Electrophoresis was stopped when the sample runs to a position 1 cm from the bottom glass plate, and transfer was performed. • 5) Transfer: 1×Transfer buffer 1000 mL containing 10% anhydrous ethanol was prepared, and the anhydrous ethanol activates PVDF membrane for 1 min and then the membrane was put into a Trans Buffer solution. Based on the target protein molecules, gel cutting was performed, and transfer was carried out based on black gel and white membrane. Under the condition of ice water bath, 330 mA constant-current transfer was performed for 70 min. • 6) Blocking: after transfer completion, the membrane was put into 5% skimmed mil powder solution and the shaker was blocked for 1 h at room temperature. • 7) Primary antibody incubation: a corresponding primary antibody was prepared for incubation of a target strip. The primary antibody was put into a 4° C. refrigerator and incubated by the shaker overnight. […]
A general note: A western blot detects proteins with antibodies after separation by electrophoresis.

The test system of data set [9] is p-Stat3, p-Akt, c-Myc, Cyclin B1, p-Erk1/2 in cells U87. Description: Western blot of cell protein expressions. Particulars: cells U87, after 24 h treatment. As for the experimental part: as §7, §8, §9
Data set [10] has as its system glioblastoma cells A172. Kind of data set: Transwell cell migration assay. Particulars: cells A172, 24 h, different concentrations. As for the experimental part: (§10) The cells of the logarithmic phase were taken and dissociated by 0.25% trypsin-EDTA and blown into single cells. 200 μL of serum-free culture medium containing 5×10^4 cells was sucked and added into the Transwell upper chamber and 600 μL of culture medium containing 20% FBS was transferred to the Transwell lower chamber and drugs of corresponding concentrations were added to the upper and lower chambers. Culture was performed for 24 h in the cell incubator. In each well of the 24-well plate, 300 μL of 1% crystal violet methanol solution was added. After the culture medium was sucked and discarded, the Transwell chamber was placed into crystal violet and fixed free from light at room temperature and stained for 30 min. The chamber was picked by tweezers into the PBS buffer solution and washed slowly, and the cells and surplus crystal violet in the upper chamber were gently wiped with a cotton swab and then photographed under microscope for counting to calculate the number of the migrating cells of each group. […]

Data set [11] relates to glioblastoma cells U251. Kind of data set: Transwell cell migration assay. Particulars: cells U251, 24 h, different concentrations. The method, then:
as §10

What is called IC50 is the midpoint of a concentration-inhibition curve. Higher therefore signals lower potency. For the compound `OB(O)c1cccc(Nc2ncc(Cl)c(-c3c[nH]c4ncccc34)n2)c1` [(3-((5-chloro-4-(1H-pyrrolo[2,3-b]pyridin-3-yl)pyrimidin-2-yl)amino)phenyl)boric acid], the IC50 came out at 0.48 µM in [1] (Homo sapiens, A 172, cells A172 treated for 72 h); 0.38 µM in [2] (Homo sapiens, U-251, cells U251 treated for 72 h); 0.17 µM in [3] (cells U87 treated for 72 h). Moreover, the “cytotoxic effect (survival rate, SRB)” value is recorded as “significant cytotoxic effect” in data set [1] (cells A172, 24 h, 48 h and 72 h, different concentrations); “significant cytotoxic effect” in [2] (cells U251, 24 h, 48 h and 72 h, different concentrations); “significant cytotoxic effect” in [3] (cells U87, 24 h, 48 h and 72 h, different concentrations). Further, the “number of cell colonies” value in data set [4] and in data set [5] was “reduced the number of the cell colonies in a dose-dependent way” each time. The “distribution of the G2/M phase” value in [6] turned out to be 40.61%; in data set [7], 42.62%. Also, the “Cyclin B1 protein expression” value in data set [8] and in [9] was “decreased” throughout. Also, the c-Myc protein expression result in data set [8] and in [9] was “decreased” each time. In addition, the p-Akt protein expression entry in data set [8] and in data set [9] was “decreased” each time. Also, the p-Erk1/2 protein expression result in [8] and in data set [9] was “increased” in each case. Moreover, the p-Stat3 protein expression entry in data set [8] and in data set [9] was “decreased” throughout. The “cell migration (number of migrating cells)” value in data set [10] and in data set [11] was “significant cell migration inhibition effect” in each case.
